# Test results as given in US20180110762A1, “Compositions Methods for Treating Chronic Kidney Disease” (Merck Sharp & Dohme Corp, priority 2015, published 2018).
# How the values were obtained:
# [1] = test system: human podocytes; test: Oris cell migration assay, PAN-induced podocyte motility, fibronectin coated plate; format: cell-based; conditions: 48 h; for % migrated cells vs control cells: FN plate
# Description: The effects of Compound A on podocyte motility were evaluated using Oris cell migration assay kit in 96-well plates (coated with either vitronectin or fibronectin). The Oris™ Cell Migration Assay is designed with a unique cell seeding stopper or biocompatible gel, detection mask, and stopper tool. These unique plate designs generate highly reproducible results using a microscope, digital imaging system. 7 to 10-day differentiated human podocytes (100 ul of 50,000 cells/ml) were seeded in each well of the ORIS plate. After sitting at room temperature for about 15 minutes, the plate was placed into 37° C. incubator and podocytes were incubated with complete podocyte medium for 24 h. Stoppers from each well (keeping stoppers in 4 wells which were served as time zero control) were carefully removed, medium discarded, and fresh (10% FBS) podocyte medium added to each well. Podocytes were pretreated with Compound A (10 uM to 0.01 nM) for 2 h prior to puromycin animonucleoside (PAN, 30 ug/ml or 15 ug/ml) treatment. Podocytes were then treated with PAN in the presence or absence of Compound A at different concentrations (ranging from 10 uM to 0.01 nM) in 10% FBS medium for 48 h. Podocytes were then fixed with 4% paraformaldehyde in PBS for 30 minutes (adding 50 ul to each well). After discarding the fixative, podocytes were stained with Hoechst 33342 (stock […] working concentration at 5 uM) for 30 min. Podocytes were then washed with PBS three times. Finally, after adding 100 ul of PBS to each well, plate was sealed with a black cover and kept at 4° C. until image analysis. Images of podocyte motility were captured using Acumen eX3 (manufacturer TTP Labtech Ltd. address: Melbourn Science Park, Melbourn, Hertfordshire SG8 6EE, United Kingdom).
# Effect of Compound A (“A”) on human podocyte motility was examined using Oris cell migration assay in fibronectin (FN) coated-96-well plate.
# [2] = test system: male obese ZSF1 rats (diabetic nephropathy model); test: ZSF1 rat study: GFR measurement by FITC-sinistrin clearance; format: in vivo
# Description: (§1) The effects of Compound A (“A”) on renal function, plasma triglycerides, plasma cholesterol, kidney collagen I, kidney collagen III, renal histology, glomerular filtration rate, fibrosis score, and mRNA gene expression (profibrotic genes and integrin β3) were evaluated in male obese ZSF1 rats (a hybrid F1 of Zucker diabetic fatty rat and spontaneously hypertensive heart failure rat; a diabetic nephropathy model) when administered as in-feed for 28 weeks. Sixty obese male ZSF1 rats were randomized to five groups: Obese control (n=12), Compound A 60 mpk (n=12), Compound A 200 mpk (n=12), Compound A 400 mpk (n=12), Enalapril 10 mpk (n=12); Eight lean male ZSF1 rats were used for normal control. Renal functional changes were monitored by blood and urine analysis following in-feed dosing for 28 weeks. Compound exposure was also monitored during the study.
# For the measurement of GFR, a miniaturized device (NIC-Kidney, Mannheim Pharma & Diagnostics, Mannheim, Germany) was used. In brief, the device (batteries, diodes, and microprocessor) containing an optical component was affixed on a depilated region of the back using a double-sided sticky patch (Lohmann GmbH KG, 56567, Neuwied, Germany) under isofluorane anesthesia (3% isoflurane mixed with oxygen). After a resting baseline period of 1-1.5 minutes, a bolus of FITC-sinistrin (5 mg/100 g body weight, dissolved in 0.5 mL sterile isotonic saline) was injected through the tail vein. The rat was then placed in a clean cage for recovery from anesthesia to responsible ambulation. […] The excretion kinetics of FITC-sinistrin was determined using a sampling rate of 60 measurements per minute with an excitation time of 10 milliseconds per measurement for 120 minutes after the injection. One compartment model was used for FITC-sinistrin clearance. After completion of GFR measurement, the device was gently removed from the skin and the rat returned to its home cage.
# [3] = test system: male obese ZSF1 rats (diabetic nephropathy model); test: ZSF1 rat study: plasma triglyceride and cholesterol; format: in vivo; conditions: for Plasma Triglyceride / plasma cholesterol levels: obese ZSF1 rats; for plasma cholesterol levels: in mg/dL (unit assumed)
# Description: as §1
# [4] = obese ZSF1 rats, 200 mpk in-feed, week 28
# [5] = obese ZSF1 rats, 400 mpk in-feed, week 28
structure (smiles),measurement,setting,value
"COc1ccc([C@H](CC(=O)O)N2CCN(CCCc3ccc4c(n3)NCCC4)C2=O)cn1 [Compound A, 3-{2-Oxo-3-[3-(5,6,7,8-tetrahydro-[1,8]naphthyridin-2-yl)-propyl]imidazolidin-1-yl}-3 (S)-(6-methoxy-pyridin-3-yl)-propionic acid]",IC50,"[1]; Homo sapiens, fibronectin coated plates, PAN 15 ug/ml, read-out: IC50, inhibition of puromycin-induced human podocyte motility",1.12 nM
same,% migrated cells vs control cells,[1]; PAN 15 ug/ml + A 0.01 nM,76.3%
same,% migrated cells vs control cells,[1]; PAN 15 ug/ml + A 0.0316 nM,80.3%
same,% migrated cells vs control cells,[1]; PAN 15 ug/ml + A 0.1 nM,84.9%
same,% migrated cells vs control cells,[1]; PAN 15 ug/ml + A 0.316 nM,83.6%
same,% migrated cells vs control cells,[1]; PAN 15 ug/ml + A 1 nM,72.9%
same,% migrated cells vs control cells,[1]; PAN 15 ug/ml + A 3.16 nM,64.8%
same,% migrated cells vs control cells,[1]; PAN 15 ug/ml + A 10 nM,54.1%
same,% migrated cells vs control cells,[1]; PAN 15 ug/ml + A 100 nM,35.8%
same,% migrated cells vs control cells,[1]; PAN 15 ug/ml + A 1 uM,36.3%
same,% migrated cells vs control cells,[1]; PAN 15 ug/ml + A 10 uM,33.1%
same,effect on glomerular filtration rate,"[2]; 60 mpk, 200 mpk and 400 mpk at weeks 28-30",no significant effect
same,Glomerular Filtration Rate,[2]; ZSF-1 rats vs untreated obese ZSF-1 rats (summary),non-statistically significant improvements in glomerular filtration rate
same,Glomerular Filtration Rate,"[2]; obese ZSF1 rats, 60 mpk in-feed, week 28",609.8 ± 42.1 uLs/Min/100 gm BW
same,"FITC-sinistrin clearance, % change of improvement compared to Obese Vehicle group",[2]; [4],8.8%
same,Glomerular Filtration Rate,[2]; [4],663.2 ± 50.6 uLs/Min/100 gm BW
same,"FITC-sinistrin clearance, % change of improvement compared to Obese Vehicle group",[2]; [5],14.4%
same,Glomerular Filtration Rate,[2]; [5],697.5 ± 37.9 uLs/Min/100 gm BW
same,effect on plasma triglyceride levels,[3]; 200 mpk at week 4 and 400 mpk at week 16 and 28,significantly decreased
same,effect on plasma cholesterol levels,"[3]; 200 mpk at week 28 and 400 mpk at week 16, 21, 24, and 28",significantly decreased
same,plasma TG and cholesterol,"[3]; high doses, obese ZSF-1 rats vs untreated obese ZSF-1 rats (summary)",improvement of plasma TG and cholesterol
same,Plasma Triglyceride,"[3]; 60 mpk in-feed, week 2",2535.3 ± 170.6 mg/dL
same,plasma cholesterol levels,"[3]; 60 mpk in-feed, week 2",229.3 ± 9.6
same,Plasma Triglyceride,"[3]; 60 mpk in-feed, week 4",2807.5 ± 143.4 mg/dL
same,plasma cholesterol levels,"[3]; 60 mpk in-feed, week 4",262.7 ± 10.5
same,Plasma Triglyceride,"[3]; 60 mpk in-feed, week 6",2873.2 ± 116.5 mg/dL
same,plasma cholesterol levels,"[3]; 60 mpk in-feed, week 6",261.2 ± 9.9
same,Plasma Triglyceride,"[3]; 60 mpk in-feed, week 8",3187.9 ± 157.1 mg/dL
same,plasma cholesterol levels,"[3]; 60 mpk in-feed, week 8",289.1 ± 9.5
same,Plasma Triglyceride,"[3]; 60 mpk in-feed, week 12",3138.5 ± 168.9 mg/dL
same,plasma cholesterol levels,"[3]; 60 mpk in-feed, week 12",315.4 ± 13.2
same,Plasma Triglyceride,"[3]; 60 mpk in-feed, week 16",3120.3 ± 191.6 mg/dL
same,plasma cholesterol levels,"[3]; 60 mpk in-feed, week 16",357.8 ± 13.3
same,Plasma Triglyceride,"[3]; 60 mpk in-feed, week 21",2933.4 ± 317.5 mg/dL
same,plasma cholesterol levels,"[3]; 60 mpk in-feed, week 21",392.9 ± 20.6
same,Plasma Triglyceride,"[3]; 60 mpk in-feed, week 24",3093.3 ± 355.2 mg/dL
same,plasma cholesterol levels,"[3]; 60 mpk in-feed, week 24",448.0 ± 23.8
same,Plasma Triglyceride,"[3]; 60 mpk in-feed, week 28",3218.7 ± 427.5 mg/dL
same,plasma cholesterol levels,"[3]; 60 mpk in-feed, week 28",495.7 ± 29.4
same,Plasma Triglyceride,"[3]; 60 mpk in-feed, week −2",2046.8 ± 72.0 mg/dL
same,plasma cholesterol levels,"[3]; 60 mpk in-feed, week −2",192.0 ± 4.5
same,Plasma Triglyceride,"[3]; 200 mpk in-feed, week 2",2111.1 ± 123.5 mg/dL
same,plasma cholesterol levels,"[3]; 200 mpk in-feed, week 2",205.4 ± 7.8
same,Plasma Triglyceride,"[3]; 200 mpk in-feed, week 4",2592.4 ± 206.8 mg/dL
same,plasma cholesterol levels,"[3]; 200 mpk in-feed, week 4",243.5 ± 9.2
same,Plasma Triglyceride,"[3]; 200 mpk in-feed, week 6",2534.6 ± 185.5 mg/dL
same,plasma cholesterol levels,"[3]; 200 mpk in-feed, week 6",233.7 ± 9.1
same,Plasma Triglyceride,"[3]; 200 mpk in-feed, week 8",3325.3 ± 189.8 mg/dL
same,plasma cholesterol levels,"[3]; 200 mpk in-feed, week 8",289.3 ± 9.3
same,Plasma Triglyceride,"[3]; 200 mpk in-feed, week 12",3188.3 ± 191.4 mg/dL
same,plasma cholesterol levels,"[3]; 200 mpk in-feed, week 12",315.9 ± 11.2
same,Plasma Triglyceride,"[3]; 200 mpk in-feed, week 16",2930.4 ± 217.5 mg/dL
same,plasma cholesterol levels,"[3]; 200 mpk in-feed, week 16",346.8 ± 12.1
same,Plasma Triglyceride,"[3]; 200 mpk in-feed, week 21",2717.2 ± 199.8 mg/dL
same,plasma cholesterol levels,"[3]; 200 mpk in-feed, week 21",366.7 ± 14.1
same,Plasma Triglyceride,"[3]; 200 mpk in-feed, week 24",2923.8 ± 267.3 mg/dL
same,plasma cholesterol levels,"[3]; 200 mpk in-feed, week 24",415.1 ± 19.6
same,Plasma Triglyceride,"[3]; 200 mpk in-feed, week 28",2632.8 ± 269.6 mg/dL
same,plasma cholesterol levels,"[3]; 200 mpk in-feed, week 28",451.9 ± 23.6
same,Plasma Triglyceride,"[3]; 200 mpk in-feed, week −2",1965.3 ± 83.6 mg/dL
same,plasma cholesterol levels,"[3]; 200 mpk in-feed, week −2",189.5 ± 6.6
same,Plasma Triglyceride,"[3]; 400 mpk in-feed, week 2",2415.9 ± 119.5 mg/dL
same,plasma cholesterol levels,"[3]; 400 mpk in-feed, week 2",229.8 ± 6.0
same,Plasma Triglyceride,"[3]; 400 mpk in-feed, week 4",2763.1 ± 146.9 mg/dL
same,plasma cholesterol levels,"[3]; 400 mpk in-feed, week 4",252.3 ± 5.3
same,Plasma Triglyceride,"[3]; 400 mpk in-feed, week 6",2715.6 ± 111.4 mg/dL
same,plasma cholesterol levels,"[3]; 400 mpk in-feed, week 6",238.9 ± 6.6
same,Plasma Triglyceride,"[3]; 400 mpk in-feed, week 8",3185.0 ± 191.8 mg/dL
same,plasma cholesterol levels,"[3]; 400 mpk in-feed, week 8",278.8 ± 9.5
same,Plasma Triglyceride,"[3]; 400 mpk in-feed, week 12",3086.5 ± 121.3 mg/dL
same,plasma cholesterol levels,"[3]; 400 mpk in-feed, week 12",306.4 ± 7.0
same,Plasma Triglyceride,"[3]; 400 mpk in-feed, week 16",2648.9 ± 167.8 mg/dL
same,plasma cholesterol levels,"[3]; 400 mpk in-feed, week 16",304.6 ± 11.1
same,Plasma Triglyceride,"[3]; 400 mpk in-feed, week 21",2523.9 ± 220.7 mg/dL
same,plasma cholesterol levels,"[3]; 400 mpk in-feed, week 21",351.4 ± 13.8
same,Plasma Triglyceride,"[3]; 400 mpk in-feed, week 24",2439.5 ± 162.4 mg/dL
same,plasma cholesterol levels,"[3]; 400 mpk in-feed, week 24",374.7 ± 12.8
same,Plasma Triglyceride,"[3]; 400 mpk in-feed, week 28",2215.7 ± 179.3 mg/dL
same,plasma cholesterol levels,"[3]; 400 mpk in-feed, week 28",391.2 ± 14.7
same,Plasma Triglyceride,"[3]; 400 mpk in-feed, week −2",2211.5 ± 117.2 mg/dL
same,plasma cholesterol levels,"[3]; 400 mpk in-feed, week −2",195.5 ± 5.5
